Measurements from patent US20160151403A1, “SMALL MOLECULE MODULATORS OF P53 FAMILY SIGNALING” (The Trustees of the University of Pennsylvania, priority 2006, published 2016).

How the values were obtained:
[1] = tested on: HCT116/p53(−/−) xenografts; assay: In vivo anti-tumor assay, HCT116/p53(-/-) xenografts in Balb/c nude mice; details: intra-peritoneal, #1 100 mg/kg, #14 50 mg/kg, #23 10 mg/kg; 7 days after treatment
Method: Balb/c nude mice were inoculated subcutaneously with 2 million HCT116/p53(−/−) cells in Matrigel on each flank. 6 mice were used in each group, in each of the two experiments. When the tumor mass reached about 3-5 mm, mice were treated with the compounds alone or following a single dose of TRAIL at 100 μg/mouse in experiment 1. At 7 days after treatment, mice were sacrificed and the tumor masses were weighted. The doses used were 100 mg/kg for #1, 50 mg/kg for #14, and 10 mg/kg for #23;
Balb/c nude mice (Charles River Laboratories, Wilmington, Mass.) were inoculated subcutaneously with 2 million HCT116/p53(−/−) cells in an equal volume of Matrigel. When tumor masses reached about 3-5 mm in diameter, mice were treated with the compounds alone by intraperitoneal injection or following a single intravenous dose of TRAIL at 100 μg/mouse. At 7 days after treatment, mice were sacrificed and the tumor masses were weighed. DLD1/PG13 cells were inoculated subcutaneously with 5 million cells. At 24 hours later mice were treated with selected compounds, and subsequently bioluminescence imaging was carried out after 16 hours as previously described [Wang, W. & El-Deiry, W. S. (2003) Cancer Biol Ther 2, 196-202].
(§1) Compounds #1, #14, #17, and #23 were tested in colon-tumor xenograft-bearing mice in order to evaluate their toxicities and potential anti-tumor effects (FIG. 4). […] The initial doses were chosen below maximal tolerated doses based on the NCI DTP toxicology databases for chemical compound testing in vivo so that mice would survive drug administration and allow subsequent evaluation of anti-tumor effects. p53-null HCT116 xenografts were first tested to document anti-tumor effects in p53-deficient tumors and an experiment to simulate therapy of established tumors was designed. A total of 2×10^6 p53-null HCT116 cells were implanted on opposite flanks subcutaneously in each of 6 nude mice in each group. When tumor masses grew to about 3-5 mm in diameter, drugs were administered intra-peritoneally (#1: 100 mg/kg; #14: 50 mg/kg; #23: 10 mg/kg), and on the next day additional groups received intravenous TRAIL (15) (100 μg/mice via the tail vein). Tumor weights were determined at 7 days later. […] Nonetheless in the future it may be possible to modify the structure of #17 or identify doses where synergistic interactions with TRAIL may be observed.

[2] = Toxicity in xenograft-bearing mice; assay type: in vivo; details: i.p., #1 100 mg/kg, #14 50 mg/kg, #23 10 mg/kg
Method: as §1

[3] = tested on: p53 phosphorylation at ser20 and acetylation at lys382; assay: Western blot of p53 phosphorylation and acetylation (DNA damage signaling); assay type: cell-based, human; details: 16 h; for p53 acetylation at lys382: HCT116/p53(+/+) cells; for p53 phosphorylation at ser20: HCT116/p53(+/+)/PG13 and SW480 cells
Method: FIGS. 7A-7C show: p53 levels and posttranslational modifications after treatment by selected compounds. (A) HCT116/p53(+/+) cells were treated with adriamycin, compounds nos. 1, 14, 17, and 23 for 16 h, and p53 and acetylated p53 levels were detected by Western blot. Nonspecific bands (Lower) serve as a loading control. (B) HCT116/p53(+/+)/PG13 cells were treated with adriamycin or compounds as indicated for 16 h and p53, phosphorylated p53 (ser20) levels and firefly luciferase protein expression were detected by Western blot. (C) SW480 cells were treated with compounds as indicated for 16 h, and p53 and phosphorylated p53 (ser20) levels were detected by Western blot. CP, CP-31398;
(§2) Cells were collected and protein concentration was quantified by the Bio-Rad protein assay prior to SDS-PAGE. Proteins were transferred to a PVDF membrane (Immobilon-P, Millipore Corporation, Bedford, Mass.) by a semi-dry transfer apparatus (Bio-Rad Laboratories, Hercules, Calif.). The membranes with transferred proteins were blotted with 10% W/V non-fat dry milk and then incubated with the primary antibody and subsequently secondary antibodies, which were labelled by horseradish peroxidase, or infrared dyes (IR). Signals were visualized by either ECL (Amersham Pharmacia Biotech, England, UK) and exposed to an X-ray film, or scanned by the Odyssey Infared Imaging System (LI-COR Biosciences, Lincoln, Nebr.). Anti-p53, DO-1, was from Santa Cruz biotechnology, Inc. (Santa Cruz, Calif.), anti-p73 (AB-1) and anti-p21 (AB-1) were obtained from Calbiochem (San Diego, Calif.). Anti-ser20 of p53 Cell were obtained from Signaling Technology (Danvers, Mass.) and anti-DR5 antibody was obtained from Cayman Chemical (Ann Arbor, Mich.).
In order to determine whether DNA damage signaling is involved in the mechanism of action of selected compounds, Western blot was used to test the status of phosphorylation and acetylation of p53, which are sensitive indicators of DNA damage.

[4] = tested on: p73 in HCT116/p53(−/−) cells; assay: Western blot of p73 protein in HCT116/p53(-/-) cells; assay type: cell-based, human; details: FIG. 3F
Method: FIGS. 3A-3F show: Structures (A) of isolated compounds and summary of their effects on the p53 family and transcriptional targets (B). Cell cycle profiles of HCT/p53(+/+) and HCT/p53(−/−) in response to treatment by selected compounds (C-E). The dose of #17 was 200 μM and for #23 it was 10 μM. F, p73 protein levels were elevated in HCT116/p53(−/−) cells in response to treatment by selected compounds at various concentrations as indicated;
as §2
The questioned whether the p53 family member p73 is involved in the p53-responsive transcriptional activity induced by the compounds identified was then tested. p63, the other p53 family member, was not tested, because the TA form of p63 is rarely expressed in malignant and normal tissues except for germ cells of the ovary and testis.

Compound | anti-tumor effect (tumor weights) [1] | overt toxicities in treated mice [2] | p53 acetylation at lys382 [3] | p53 phosphorylation at ser20 [3] | p73 protein expression [4]
CO[C@H]1[C@@H](O)[C@@H](C)O[C@H](O[C@H]2[C@H](Oc3cccc4c(O)c5c(=O)oc6ccc(C)c7c(=O)oc(c34)c5c67)O[C@H](C)[C@H](O)[C@@H]2O)[C@@H]1O [#1] | anti-tumor effects were observed | No overt toxicities were observed |  |  | 
COc1cccc2c1C(=O)c1c(O)c3c(c(O)c1C2=O)CC(O)(/C(C)=N/O)CC3OC1CC(N)C(O)C(C)O1 (stereo not drawn) [#14] | anti-tumor effects were observed | No overt toxicities were observed | strong inducers | strong inducers of p53 phosphorylation at ser20 | strong inducers of p73
COc1cccc2c1C(=N)c1c(O)c3c(c(O)c1C2=O)C[C@@](O)(C(C)=O)C[C@@H]3O[C@H]1C[C@H](N)[C@H](O)[C@H](C)O1 [#23] | anti-tumor effects were observed | No overt toxicities were observed | strong inducers | strong inducers of p53 phosphorylation at ser20 | strong inducers of p73
